Source: article PMC6017322, “Triterpene Acids from Frankincense and Semi-Synthetic Derivatives That Inhibit 5-Lipoxygenase and Cathepsin G” (Molecules : A Journal of Synthetic Chemistry and Natural …, 2018)

Key:
cathepsin G = molecular target: T1, cathepsin G (Homo sapiens, UniProt P08311); assay: Cathepsin G activity in a cell-free assay (Suc-AAPF-pNA substrate); format: biochemical; conditions: for IC50: read-out: Cat. G IC50 (converted); for remaining activity at 10 µM / Cat. G Activity [% Control]: residual activity at 10 µM, mean ± SEM, 3–4 experiments; for remaining activity at 10 µM: read-out: Cat. G Activity [% Control]; for inhibition at 10 µM / inhibition of cathepsin G: at 10 µM
T1 construct: purified cathepsin G (0.2 µg) from human neutrophils; purchased Calbiochem; host or cells: human neutrophils (natural source)
T1 sequence (P08311 21-244 limits assumed): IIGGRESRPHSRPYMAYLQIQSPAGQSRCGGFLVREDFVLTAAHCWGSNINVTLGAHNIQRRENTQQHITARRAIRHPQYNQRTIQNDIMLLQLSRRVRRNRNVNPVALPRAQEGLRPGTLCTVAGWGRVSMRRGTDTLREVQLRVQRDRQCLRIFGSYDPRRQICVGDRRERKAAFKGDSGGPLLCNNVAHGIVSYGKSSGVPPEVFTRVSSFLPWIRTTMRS
Description: Commercially available purified cathepsin G (0.2 µg) from human neutrophils (Calbiochem, La Jolla, CA, USA) was mixed with test compounds or DMSO (vehicle control) in 200 µL 0.1 M HEPES pH 7.4, 0.5 M NaCl, and 10% DMSO in a 96-well plate (Greiner Bio-One, Frickenhausen, Germany) and pre-incubated for 20 min at 25 °C. Then, N-Suc–Ala–Ala–Pro–Phe–pNA (Suc–AAPF–pNA) (1 mM) as substrate for cathespin G was added, and the absorbance was measured at 410 nm at 25 °C using a Victor^2 plate reader (PerkinElmer, Waltham, MA, USA).

5-LO [1] = molecular target: T2, 5-LO (Homo sapiens, UniProt P09917); assay: 5-LO activity in a cell-free assay (isolated human recombinant 5-LO, 20 µM arachidonic acid); format: biochemical; parameters: made in house; host or cells: Escherichia coli BL21 (pT3-5-LO plasmid); conditions: for inhibition of 5-LO activity, cell-free / inhibition at 10 µM: at 10 µM; for 5-LO Activity [% Control] cell-free / remaining activity at 10 µM: residual activity at 10 µM, isolated 5-LO, mean ± SEM, 3–4 experiments; for remaining activity at 10 µM: read-out: 5-LO Activity [% Control] cell-free
T2 sequence (P09917 1-674): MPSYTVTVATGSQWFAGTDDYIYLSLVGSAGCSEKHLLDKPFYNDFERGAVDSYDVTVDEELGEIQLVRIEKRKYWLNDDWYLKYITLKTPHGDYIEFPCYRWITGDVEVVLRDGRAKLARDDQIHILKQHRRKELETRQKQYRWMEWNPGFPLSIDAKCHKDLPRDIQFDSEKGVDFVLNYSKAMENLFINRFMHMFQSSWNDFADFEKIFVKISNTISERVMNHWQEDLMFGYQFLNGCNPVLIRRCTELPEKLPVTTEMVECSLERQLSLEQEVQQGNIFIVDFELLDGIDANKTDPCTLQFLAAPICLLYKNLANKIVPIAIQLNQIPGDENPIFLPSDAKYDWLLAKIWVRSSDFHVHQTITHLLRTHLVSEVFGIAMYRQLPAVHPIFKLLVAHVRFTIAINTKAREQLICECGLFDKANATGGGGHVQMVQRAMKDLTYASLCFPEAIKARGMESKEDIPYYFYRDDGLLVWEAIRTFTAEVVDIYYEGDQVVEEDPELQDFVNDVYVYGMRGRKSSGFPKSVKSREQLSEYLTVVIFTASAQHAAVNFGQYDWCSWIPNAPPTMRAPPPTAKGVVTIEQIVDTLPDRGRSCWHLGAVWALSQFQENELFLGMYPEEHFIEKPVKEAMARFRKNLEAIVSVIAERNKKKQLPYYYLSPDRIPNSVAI
Description: Human recombinant 5-LO was expressed in Eschericha coli BL21 transformed with pT3-5-LO plasmid at 30 °C overnight, as described elsewhere. Cells were lysed in lysis buffer containing triethanolamine (50 mM, pH 8.0), EDTA (5 mM), phenylmethanesulfonyl fluoride (1 mM), soybean trypsin inhibitor (60 µg/mL), dithiothreitol (2 mM), and lysozyme (1 mg/mL), and homogenized by sonification (3 × 15 s). 5-LO was then purified from 40,000× g supernatant (20 min, 4 °C) using an ATP-agarose column (Sigma-Aldrich, Deisenhofen, Germany), diluted with PBS buffer containing 1 mM EDTA, and immediately used for 5-LO activity assays.
To determine 5-LO activity, aliquots of purified 5-LO (0.5 µg 5-LO in 1 mL PBS plus 1 mM EDTA) were pre-incubated with the test compounds or vehicle (0.1% dimethyl sulfoxide, DMSO) on ice for 15 min, pre-warmed for 30 s at 37 °C in a water bath, and then stimulated with 20 µM AA and CaCl2 2 mM for 10 min at 37 °C. The reaction was stopped with one volume of ice-cold methanol and 5-LO products (including all-trans-isomers of LTB4 and 5-hydroperoxyeicosatetraenoic acid (5-HpETE), as well as its corresponding alcohol 5-hydroxyeicosatetraenoic acid (5-HETE)) were analyzed by reversed phase (RP)-HPLC (Elite LaChrom, VWR, Radnor, PA, USA) as previously described. In brief, acidified PBS and 200 ng of internal PGB1 standard were added and solid phase extraction using C18 RP-columns (100 mg, UCT, Bristol, PA, USA) was performed. After elution with methanol, samples were analyzed by RP-HPLC using a C-18 Radial-PAK column (Waters, Eschborn, Germany).

5-LO [2] = molecular target: T2, 5-LO; assay: 5-LO product formation in intact human neutrophils stimulated with A23187 (cell-based); parameters: 5-LO product formation in intact human neutrophils; endogenous in cells; host or cells: freshly isolated human peripheral blood neutrophils; conditions: for remaining activity at 10 µM / 5-LO Activity [% Control] cell-based: residual activity at 10 µM, A23187, mean ± SEM, 3–4 experiments; for remaining activity at 10 µM: read-out: 5-LO Activity [% Control] cell-based; for IC50: human neutrophils stimulated with A23187
Description: Neutrophils were isolated from peripheral blood (University Hospital Tübingen, Germany), collected from fasted healthy adult donors that were informed about the aim of the study and gave written consent. Leukocyte concentrates were obtained by centrifugation (4000× g, 20 min, 20 °C) of heparinized blood preparation, and neutrophils were immediately isolated as described before. Briefly, leukocyte concentrates were subjected to dextran sedimentation and centrifuged on lymphocyte separation medium (LSM 1077, PAA, Coelbe, Germany). For isolation of pelleted neutrophils, remaining erythrocytes were removed by hypotonic lysis, washed twice with ice-cold phosphate-buffered saline (PBS) and finally resuspended in PBS buffer containing 0.1% glucose and CaCl2 (1 mM) (PGC buffer).
5-LO product formation in intact human neutrophils was performed using 5 × 10^6 freshly isolated cells that were resuspended in 1 mL PGC buffer. Cells were pre-incubated with the test compounds or vehicle (0.1% DMSO) at 37 °C for 15 min prior to stimulation with 2.5 µM Ca^2+-ionophore A23187 for 10 min (37 °C). 5-LO product formation was stopped by addition of one volume of ice-cold methanol, samples were subjected to solid phase extraction after addition of 200 ng PGB1 as internal standard, and 5-LO products (LTB4, its trans-isomers and 5-HETE) were analyzed by RP-HPLC as described above.

[3] = cell-free, purified cathepsin G from human neutrophils

SMILES | inhibition at 10 µM (cathepsin G) [%] | IC50 (cathepsin G; [3]) [µM] | remaining activity at 10 µM (cathepsin G; cell-free) [%] | 5-LO Activity [% Control] cell-free (5-LO [1]; 20 µM arachidonic acid) | remaining activity at 10 µM (5-LO [2]; human neutrophils) [%] | remaining activity at 10 µM (5-LO [1]; 20 µM arachidonic acid) [%] | IC50 (5-LO [2]) [µM] | inhibition at 10 µM (5-LO [1]) [%] | further results
C=C(C)[C@@H]1CC[C@]2(C)CC[C@]3(C)[C@H](CC[C@@H]4[C@@]5(C)CC[C@@H](OC(C)=O)[C@](C)(C(=O)O)[C@@H]5CC[C@]43C)[C@@H]12 [compound 10] | > 50 | 7.5 | 35.9 ± 2.5 | n.i. | 88.7 ± 6.7 |  |  |  | inhibition of 5-LO activity, cell-free (5-LO [1]): did not markedly inhibit 5-LO
C[C@H]1[C@H](C)CC[C@]2(C)CC[C@]3(C)C(=CC[C@@H]4[C@@]5(C)CC[C@@H](OCC(=O)O)[C@](C)(C(=O)O)[C@@H]5CC[C@]43C)[C@H]12 [compound 26, 3-O-Carboxymethyl-β-boswellic acid] |  | 3.4 | 28.8 ± 7.4 |  | 57.6 ± 5.3 | 78.1 ± 7.4 |  |  | inhibition at 10 µM (5-LO [2]; at 10 µM, human neutrophils, read-out: inhibition of 5-LO activity in intact cells): 42%
CC(=O)O[C@@H]1CC[C@@]2(C)[C@@H](CC[C@]3(C)[C@@H]2C(=O)C=C2[C@@H]4[C@@H](C)[C@H](C)CC[C@]4(C)CC[C@]23C)[C@@]1(C)C(=O)O [compound 1, 3-O-acteyl-11-keto-β-BA] |  | 0.6 | 14.8 ± 0.9 |  | 23.1 ± 9.8 | 40.7 ± 10.8 | 3 |  | Cat. G IC50 (cathepsin G; [3]): submicromolar; IC50 (5-LO [1]; isolated human 5-LO, 20 µM arachidonic acid): 3 µM
C[C@H]1[C@H](C)CC[C@]2(C)CC[C@]3(C)C(=CC(=O)[C@@H]4[C@@]5(C)CC[C@@H](OCC(=O)O)[C@](C)(C(=O)O)[C@@H]5CC[C@]43C)[C@H]12 [compound 27, 3-O-Carboxymethyl-11-keto-β-boswellic acid] |  |  |  | n.i. | 68.4 ± 2.1 |  |  |  | inhibition of cathepsin G (cathepsin G): not active; Cat. G Activity [% Control] (cathepsin G; cell-free): n.i.
C[C@H]1[C@H](C)CC[C@]2(C)CC[C@]3(C)C(=CC(=O)[C@@H]4[C@@]5(C)CC[C@@H](OC(=O)CCCC(=O)O)[C@](C)(C(=O)O)[C@@H]5CC[C@]43C)[C@H]12 [compound 25, 3-O-Glutaroyl-11-keto-β-boswellic acid] |  | 8.6 | 49.1 ± 11 | n.i. |  |  |  |  | 5-LO Activity [% Control] cell-based (5-LO [2]; human neutrophils): n.i.
CC(C)=CCC[C@H](C(=O)O)[C@@H]1CC[C@]2(C)C3=C(CC[C@@]12C)[C@@]1(C)CC[C@@H](O)C(C)(C)[C@@H]1CC3 [compound 14] | 27 to 44 |  | 73 ± 7.3 |  | 3.1 ± 0.6 | 66 ± 15.1 | 1.1 | 34 | fold more potent than AKBA 1 in intact cells (5-LO [2]; human neutrophils, IC50 comparison): about 3 fold
C[C@H]1[C@H](C)CC[C@]2(C)CC[C@]3(C)C(=C[C@H](O)[C@@H]4[C@@]5(C)CC[C@@H](O)[C@](C)(C(=O)O)[C@@H]5CC[C@]43C)[C@H]12 [compound 19, 11β-hydroxy-β-boswellic acid] |  |  | 82.7 ± 9 |  | 58.2 ± 0.9 | 87.2 ± 1.8 |  | < 25 | 
CC(C)=CCC[C@H](C(=O)O)[C@@H]1CC[C@]2(C)C3=C(CC[C@@]12C)[C@@]1(C)CCC(=O)C(C)(C)[C@@H]1CC3 [compound 16] | 27 to 44 |  | 53.1 ± 5.5 |  | 37.8 ± 2.4 | 77.1 ± 8.7 | 7.1 |  | 
CC(C)=CCC[C@H](C(=O)O)[C@@H]1CC[C@]2(C)C3=C(CC[C@@]12C)[C@@]1(C)CC[C@H](O)C(C)(C)[C@@H]1CC3 [compound 15] |  |  | 80.1 ± 6.2 |  | 5.2 ± 1 | 64.1 ± 12.4 | 3 | 36 | inhibition of cathepsin G (cathepsin G): failed to markedly inhibit cathepsin G
C[C@H]1[C@H](C)CC[C@]2(C)CC[C@]3(C)C(=CC(=O)[C@@H]4[C@@]5(C)CC[C@@H](OC(=O)CCC(=O)O)[C@](C)(C(=O)O)[C@@H]5CC[C@]43C)[C@H]12 [compound 23, 3-O-Succinoyl-11-keto-β-boswellic acid] |  |  |  |  | 80.8 ± 6.8 | 75 ± 4.8 |  |  | inhibition of cathepsin G (cathepsin G): not active; Cat. G Activity [% Control] (cathepsin G; cell-free): n.i.
C=C(C)[C@@H]1CC[C@]2(C)CC[C@]3(C)[C@H](CC[C@@H]4[C@@]5(C)CC[C@@H](O)[C@](C)(C(=O)O)[C@@H]5CC[C@]43C)[C@@H]12 [compound 9] | 27 to 44 |  | 58.1 ± 3.6 |  | 36.2 ± 5.1 | 76.6 ± 12.2 | 4 |  | inhibition of 5-LO activity, cell-free (5-LO [1]): did not markedly inhibit 5-LO
CC(C)[C@@H]1CC[C@]2(C)[C@H](CC=C3[C@@H]4[C@@H](C)[C@H](C)CC[C@]4(C)CC[C@]32C)[C@@]1(C)CCC(=O)O [compound 6] |  |  | 70.4 ± 3.9 | n.i. |  |  |  |  | inhibition of 5-LO activity, cell-free (5-LO [1]): failed in this respect; inhibition of 5-LO activity in intact cells (5-LO [2]; at 10 µM, human neutrophils): hardly active; 5-LO Activity [% Control] cell-based (5-LO [2]; human neutrophils): n.i.
CC(C)[C@@H]1CC[C@]2(C)[C@H](C(=O)C=C3[C@@H]4[C@@H](C)[C@H](C)CC[C@]4(C)CC[C@]32C)[C@@]1(C)CCC(=O)O [compound 7] |  |  | 53.8 ± 8.1 |  | 7.1 ± 3.3 | 73 ± 8.1 | 4.3 | 27 | 
